Measurements reported in patent publication US20050239656A1, “Pyridine compounds or salts thereof and herbicides containing the same” (priority 2002, published 2005).

Columns and labels:
[1] = tested on: barnyardgrass; assay: Test Example 1: foliage treatment, upland pot test; format: in vivo, Echinochloa crus-galli L.; conditions: active ingredient 1000 g/ha, observed 18th to 23rd day, 0 = non-treated, 100 = complete kill
Outline: (§1)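 Each plant species was sprayed once on its foliage, with wheat at 1.3–2.4, soybean at 0.1–0.4, barnyardgrass at 1.3–2.8 and rice at 1.2–2.6 leaves. Visual ratings of growth inhibition, 0 to 100%, followed 18–23 days later.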

[2] = tested on: crabgrass; assay: Test Example 1: foliage treatment, upland pot test; format: in vivo, Digitaria sanguinalis L.; conditions: active ingredient 1000 g/ha, observed 18th to 23rd day, 0 = non-treated, 100 = complete kill
[3] = tested on: green foxtail; assay: Test Example 1: foliage treatment, upland pot test; format: in vivo, Setaria viridis L.; conditions: active ingredient 1000 g/ha, observed 18th to 23rd day, 0 = non-treated, 100 = complete kill
[4] = tested on: redroot pigweed; assay: Test Example 1: foliage treatment, upland pot test; format: in vivo, Amaranthus retroflexus L.; conditions: active ingredient 1000 g/ha, observed 18th to 23rd day, 0 = non-treated, 100 = complete kill
[5] = tested on: prickly sida; assay: Test Example 1: foliage treatment, upland pot test; format: in vivo, Sida spinosa L.; conditions: active ingredient 1000 g/ha, observed 18th to 23rd day, 0 = non-treated, 100 = complete kill
[6] = tested on: velvetleaf; assay: Test Example 1: foliage treatment, upland pot test; format: in vivo, Abutilon theophrasti MEDIC.; conditions: active ingredient 1000 g/ha, observed 18th to 23rd day, 0 = non-treated, 100 = complete kill
[7] = tested on: rice; assay: Test Example 1: foliage treatment, upland pot test; format: in vivo, Oryza sativa L.; conditions: crop, active ingredient 1000 g/ha, observed 18th to 23rd day, 0 = non-treated, 100 = complete kill
Outline: as §1

[8] = tested on: wheat; assay: Test Example 1: foliage treatment, upland pot test; format: in vivo, Triticum spp.; conditions: crop, active ingredient 1000 g/ha, observed 18th to 23rd day, 0 = non-treated, 100 = complete kill
Outline: as §1

[9] = tested on: corn; assay: Test Example 1: foliage treatment, upland pot test; format: in vivo, Zea mays L.; conditions: crop, active ingredient 1000 g/ha, observed 18th to 23rd day, 0 = non-treated, 100 = complete kill
Outline: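 In this upland pot foliage test, corn plants at 2.1 to 3.2 leaf stages were sprayed by a small size sprayer. The spray was a conventionally formulated wettable powder or emulsifiable concentrate weighed to a set active ingredient amount, diluted in water at 500 L/ha, plus 0.1% (v/v) agricultural spreader. Visual assessment on days 18 to 23 gave growth controlling degree (%), where 0 equals untreated and 100 means complete kill.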

[10] = tested on: soybean; assay: Test Example 1: foliage treatment, upland pot test; format: in vivo, Glycine max Merr.; conditions: crop, active ingredient 1000 g/ha, observed 18th to 23rd day, 0 = non-treated, 100 = complete kill
Outline: as §1

[11] = tested on: barnyardgrass; assay: Test Example 2: soil surface treatment, upland pot test; format: in vivo, Echinochloa crus-galli L.; conditions: active ingredient 1000 g/ha, observed 20th to 28th day, 0 = non-treated, 100 = complete kill
Outline: (§2)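 Soil surface treated 1 day post-sowing. Formulation: WP or EC, predetermined a.i., diluted to 1,500 L/ha. Pot size 1/170,000 ha, upland soil. Readout: visual % control, 0 = non-treated, 100 = dead, days 20–28.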

[12] = tested on: crabgrass; assay: as above; format: in vivo, Digitaria sanguinalis L.; conditions: active ingredient 1000 g/ha, observed 20th to 28th day
Outline: as §2

[13] = tested on: green foxtail; assay: as above; format: in vivo, Setaria viridis L.; conditions: active ingredient 1000 g/ha, observed 20th to 28th day
Outline: as §2

[14] = tested on: redroot pigweed; assay: as above; format: in vivo, Amaranthus retroflexus L.; conditions: active ingredient 1000 g/ha, observed 20th to 28th day
Outline: as §2

[15] = tested on: prickly sida; assay: as above; format: in vivo, Sida spinosa L.; conditions: active ingredient 1000 g/ha, observed 20th to 28th day
Outline: as §2

[16] = tested on: velvetleaf; assay: as above; format: in vivo, Abutilon theophrasti MEDIC.; conditions: active ingredient 1000 g/ha, observed 20th to 28th day
Outline: as §2

[17] = tested on: rice; assay: as above; format: in vivo, Oryza sativa L.; conditions: active ingredient 1000 g/ha, observed 20th to 28th day
Outline: as §2

[18] = tested on: wheat; assay: as above; format: in vivo, Triticum spp.; conditions: active ingredient 1000 g/ha, observed 20th to 28th day
Outline: as §2

[19] = tested on: corn; assay: as above; format: in vivo, Zea mays L.; conditions: active ingredient 1000 g/ha, observed 20th to 28th day
Outline: as §2

[20] = tested on: soybean; assay: as above; format: in vivo, Glycine max Merr.; conditions: active ingredient 1000 g/ha, observed 20th to 28th day
Outline: as §2

[21] = tested on: japanese bulrush; assay: Test Example 3: paddy pot test, application under submerged conditions; format: in vivo, Scirpus juncoides; conditions: submerged application at 0.5 leaf stage, visually observed 14 days after application, 0 = non-treated, 100 = complete kill
Outline: (§3)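 After sowing seeds and planting wapato tubers in flooded paddy soil, an aqueous dilution of the formulated compound was added to the 3–4 cm flood water at early leaf stage. Percent growth control relative to the untreated plot was assessed visually on day 14.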

[22] = tested on: japanese ribbon wapato; assay: as above; format: in vivo, Sagittaria pygniaea; conditions: submerged application at primary leaf stage, visually observed 14 days after application, 0 = non-treated, 100 = complete kill
Outline: as §3

[23] = tested on: rice (var. Nihonbare); assay: Test Example 3: paddy pot test, transplanted rice; format: in vivo, Oryza sativa L.; conditions: applied 4th day after transplantation, visually observed 21st day after application, 0 = non-treated, 100 = complete kill
Outline: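 Rice (2-leaf stage) was transplanted 3 cm deep into puddled, leveled paddy soil under 3–4 cm flooding. On day 4 after transplanting, diluted wettable powder or emulsifiable concentrate was pipetted onto the water at a predetermined active-ingredient dose. Growth control (0 = untreated, 100 = complete kill) was scored visually 21 days later.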

[24] = tested on: barnyardgrass; assay: Test Example 3: paddy pot test, application under submerged conditions; format: in vivo, Echinochloa crus-galli L.; conditions: submerged application at 0.5 leaf stage, visually observed 14 days after application, 0 = non-treated, 100 = complete kill
Outline: as §3

[25] = tested on: tall morningglory; assay: Test Example 1: foliage treatment, upland pot test; format: in vivo, Ipomoea purpurea L.; conditions: active ingredient 1000 g/ha, observed 18th to 23rd day, 0 = non-treated, 100 = complete kill
Description: Upland field soil was put into a 1/170,000 ha pot, and seed of various plants were sown. Then, when the plants reached predetermined leaf stages ((1) barnyardgrass: 1.3 to 2.8 leaf stages, (2) crabgrass: 1.0 to 2.8 leaf stages, (3) green foxtail: 1.3 to 2.6 leaf stages, (4) redroot pigweed: 0.1 to 1.2 leaf stages, (5) prickly sida: 0.1 to 1.2 leaf stages, (6) velvetleaf: 0.1 to 1.2 leaf stages, (7) tall morningglory: 0.1 to 1.5 leaf stages, (8) rice: 1.2 to 2.6 leaf stages, (9) wheat: 1.3 to 2.4 leaf stages, (10) corn, 2.1 to 3.2 leaf stages, (11) soybean: 0.1 to 0.4 leaf stage), a wettable powder or emulsifiable concentrate having the compound of the present invention formulated in accordance with a usual formulation method, was weighed so that the active ingredient would be a predetermined amount, and diluted with water in an amount of 500 L/ha. To the diluted solution, 0.1% (v/v) of agricultural spreader was added. The herbicide thus adjusted was applied by a small size sprayer for foliage treatment. On the 18th to 23rd days after the application of the herbicide, the growth of the respective plants was visually observed, and the herbicidal effects were evaluated by the growth controlling degrees (%) ranging from 0 (equivalent to the non-treated plot) to 100 (complete kill), whereby the results shown in Table 3, were obtained.

SMILES	Growth controlling degree (%) Barnyardgrass [1]	Growth controlling degree (%) Crabgrass [2]	Growth controlling degree (%) Green foxtail [3]	Growth controlling degree (%) Redroot pigweed [4]	Growth controlling degree (%) Prickly sida [5]	Growth controlling degree (%) Velvetleaf [6]	Growth controlling degree (%) Rice [7]	Growth controlling degree (%) wheat [8]	Growth controlling degree (%) Corn [9]	Growth controlling degree (%) Soybean [10]	Growth controlling degree (%) Barnyardgrass [11]	Growth controlling degree (%) Crabgrass [12]	Growth controlling degree (%) Green foxtail [13]	Growth controlling degree (%) Redroot pigweed [14]	Growth controlling degree (%) Prickly sida [15]	Growth controlling degree (%) Velvetleaf [16]	Growth controlling degree (%) Rice [17]	Growth controlling degree (%) wheat [18]	Growth controlling degree (%) Corn [19]	Growth controlling degree (%) Soyabean [20]	other results
CC(C)C(c1cnccc1C(F)(F)F)N(C)C(=O)Cc1ccccc1 (centres unmarked) [I-1, N-methyl-N-[2-methyl-1-(4-trifluoromethylpyridin-3-yl)propyl]phenylacetamide]	80%	80%	70%	70%	80%	90%	60%	60%	70%	80%	90%	100%	100%	80%	70%	80%	80%	50%	70%	50%	Growth controlling degree (%) Japanese bulrush ([21]; active ingredient 500 g/ha): 98%; Growth controlling degree (%) Japanese ribbon wapato ([22]; active ingredient 500 g/ha): 95%; Growth controlling degree (%) Rice ([23]; active ingredient 500 g/ha): 60%; melting point: 71.2 °C
CCN(C(=O)Cc1c(F)cccc1F)C(c1cnccc1C(F)(F)F)C(C)C (centres unmarked) [I-30, N-ethyl-N-[2-methyl-1-(4-trifluoromethylpyridin-3-yl)propyl]2,6-difluorophenylacetamide]																					Growth controlling degree (%) Barnyardgrass ([24]; active ingredient 250 g/ha): 100%; Growth controlling degree (%) Japanese bulrush ([21]; active ingredient 250 g/ha): 90%; Growth controlling degree (%) Japanese ribbon wapato ([22]; active ingredient 250 g/ha): 80%; Growth controlling degree (%) Rice ([23]; active ingredient 250 g/ha): 0%; melting point: 121.9 °C
CCC(=O)N(C)C(c1cnccc1C(F)(F)F)c1cccc2ccccc12 (centres unmarked) [I-43]	70%	90%	70%	70%	80%	95%	10%	10%	10%	10%	90%	100%	98%	60%	70%	0%	10%	40%	30%	10%	Growth controlling degree (%) Tall morningglory [25]: 90%; Growth controlling degree (%) Barnyardgrass ([24]; active ingredient 500 g/ha): 100%; Growth controlling degree (%) Japanese bulrush ([21]; active ingredient 500 g/ha): 100%; Growth controlling degree (%) Japanese ribbon wapato ([22]; active ingredient 500 g/ha): 90%; Growth controlling degree (%) Rice ([23]; active ingredient 500 g/ha): 35%
CCC(=O)N(CC)C(c1cnccc1C(F)(F)F)c1cccc2ccccc12 (centres unmarked) [I-44]	60%	80%	70%	70%	80%	95%	10%	20%	10%	50%	80%	90%	100%	0%	0%	0%	40%	40%	10%	0%	Growth controlling degree (%) Tall morningglory [25]: 90%; Growth controlling degree (%) Barnyardgrass ([24]; active ingredient 500 g/ha): 90%; Growth controlling degree (%) Japanese bulrush ([21]; active ingredient 500 g/ha): 95%; Growth controlling degree (%) Japanese ribbon wapato ([22]; active ingredient 500 g/ha): 100%; Growth controlling degree (%) Rice ([23]; active ingredient 500 g/ha): 30%
COC(=O)N(C)C(c1cnccc1C(F)(F)F)c1cccc2ccccc12 (centres unmarked) [I-46]	80%	95%	50%	90%	80%	95%	30%	30%	40%	95%	100%	90%	95%	10%	60%	50%	10%	30%	10%	0%	Growth controlling degree (%) Tall morningglory [25]: 95%; Growth controlling degree (%) Barnyardgrass ([24]; active ingredient 500 g/ha): 100%; Growth controlling degree (%) Japanese bulrush ([21]; active ingredient 500 g/ha): 100%; Growth controlling degree (%) Japanese ribbon wapato ([22]; active ingredient 500 g/ha): 90%; Growth controlling degree (%) Rice ([23]; active ingredient 500 g/ha): 10%
